Measurements taken from ChEMBL document CHEMBL4414672, “Synthesis of certain benzothieno[3,2-d]pyrimidine derivatives as a selective SIRT2 inhibitors” (Eur J Med Chem, 2020).
≈ marks a conversion by molar mass, not a printed value.

Key:
SR = assay: Growth inhibition of human SR cells at 10^-5 M incubated for 48 hrs by sulforhodamine B assay; type: functional; conditions: read-out: GI
UO-31 = assay: Cytotoxicity against human UO31 cells assessed as reduction in cell viability after 24 hrs by MTT assay; type: functional, cell-based; conditions: UO-31, 24 h
SNB-19 = assay: Growth inhibition of human SNB19 cells at 10^-5 M incubated for 48 hrs by sulforhodamine B assay; type: functional; conditions: SNB-19, 48 h, read-out: GI
RXF 393 = assay: Growth inhibition of human RXF393 cells at 10^-5 M incubated for 48 hrs by sulforhodamine B assay; type: functional; conditions: RXF 393, 48 h, read-out: GI
K562 = assay: Growth inhibition of human K562 cells at 10^-5 M incubated for 48 hrs by sulforhodamine B assay; type: functional; conditions: K562, 48 h, read-out: GI
HOP-92 = assay: Growth inhibition of human HOP92 cells at 10^-5 M incubated for 48 hrs by sulforhodamine B assay; type: functional; conditions: HOP-92, 48 h, read-out: GI
Malme-3M = assay: Growth inhibition of human MALME-3M cells at 10^-5 M incubated for 48 hrs by sulforhodamine B assay; type: functional; conditions: read-out: GI
OVCAR-8 = assay: Growth inhibition of human OVCAR8 cells at 10^-5 M incubated for 48 hrs by sulforhodamine B assay; type: functional; conditions: OVCAR-8, 48 h, read-out: GI
OVCAR-3 = assay: Growth inhibition of human OVCAR3 cells at 10^-5 M incubated for 48 hrs by sulforhodamine B assay; type: functional; conditions: OVCAR-3, 48 h, read-out: GI
SN12C = assay: Growth inhibition of human SN12C cells at 10^-5 M incubated for 48 hrs by sulforhodamine B assay; type: functional; conditions: read-out: GI
TK-10 = assay: Growth inhibition of human TK10 cells at 10^-5 M incubated for 48 hrs by sulforhodamine B assay; type: functional; conditions: TK-10, 48 h, read-out: GI
UACC-62 = assay: Growth inhibition of human UACC62 cells at 10^-5 M incubated for 48 hrs by sulforhodamine B assay; type: functional; conditions: UACC-62, 48 h, read-out: GI
SK-OV-3 = assay: Growth inhibition of human SKOV3 cells at 10^-5 M incubated for 48 hrs by sulforhodamine B assay; type: functional; conditions: SK-OV-3, 48 h, read-out: GI
[1] = biological target: T1, NAD-dependent protein deacetylase sirtuin-2 (Homo sapiens, UniProt Q8IXJ6); assay: Inhibition of SIRT2 (unknown origin) using fluorogenic substrate assessed as deacetylase activity incubated for 45 mins by fluorescence assay
T1 sequence (Q8IXJ6 whole entry): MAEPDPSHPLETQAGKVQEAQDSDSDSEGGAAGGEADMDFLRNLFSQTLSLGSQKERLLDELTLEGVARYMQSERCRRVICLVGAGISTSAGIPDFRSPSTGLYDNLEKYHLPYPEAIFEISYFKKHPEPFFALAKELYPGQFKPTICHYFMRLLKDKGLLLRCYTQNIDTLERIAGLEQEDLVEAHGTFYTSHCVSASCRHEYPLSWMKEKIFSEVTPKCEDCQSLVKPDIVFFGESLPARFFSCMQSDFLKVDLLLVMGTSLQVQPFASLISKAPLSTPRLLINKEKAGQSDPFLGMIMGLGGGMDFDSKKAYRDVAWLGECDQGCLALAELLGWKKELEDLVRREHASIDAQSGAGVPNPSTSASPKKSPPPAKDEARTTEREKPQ

M14 = assay: Growth inhibition of human M14 cells at 10^-5 M incubated for 48 hrs by sulforhodamine B assay; type: functional; conditions: M14, 48 h, read-out: GI
NCI-H23 = assay: Growth inhibition of human NCI-H23 cells at 10^-5 M incubated for 48 hrs by sulforhodamine B assay; type: functional; conditions: NCI-H23, 48 h, read-out: GI
SK-MEL-2 = assay: Growth inhibition of human SK-MEL-2 cells at 10^-5 M incubated for 48 hrs by sulforhodamine B assay; type: functional; conditions: SK-MEL-2, 48 h, read-out: GI
T47D = assay: Growth inhibition of human T47D cells at 10^-5 M incubated for 48 hrs by sulforhodamine B assay; type: functional; conditions: read-out: GI
PC-3 = assay: Growth inhibition of human PC3 cells at 10^-5 M incubated for 48 hrs by sulforhodamine B assay; type: functional; conditions: PC-3, 48 h, read-out: GI
SF-539 = assay: Growth inhibition of human SF539 cells at 10^-5 M incubated for 48 hrs by sulforhodamine B assay; type: functional; conditions: SF-539, 48 h, read-out: GI
A498 = assay: Growth inhibition of human A498 cells at 10^-5 M incubated for 48 hrs by sulforhodamine B assay; type: functional; conditions: A498, 48 h, read-out: GI
NCI-H322M = assay: Growth inhibition of human NCI-H322M cells at 10^-5 M incubated for 48 hrs by sulforhodamine B assay; type: functional; conditions: read-out: GI
MCF7 = assay: Cytotoxicity against human MCF7 cells assessed as reduction in cell viability after 24 hrs by MTT assay; type: functional, cell-based; conditions: MCF7, 24 h
MDA-MB-231 = assay: Growth inhibition of human MDA-MB-231 cells at 10^-5 M incubated for 48 hrs by sulforhodamine B assay; type: functional; conditions: MDA-MB-231, 48 h, read-out: GI

SMILES	inhibition of growth at 10 µM (SR) [%]	IC50 (UO-31) [µg/mL]	inhibition of growth at 10 µM (SNB-19) [%]	inhibition of growth at 10 µM (RXF 393) [%]	inhibition of growth at 10 µM (K562) [%]	inhibition of growth at 10 µM (HOP-92) [%]	inhibition of growth at 10 µM (Malme-3M) [%]	inhibition of growth at 10 µM (OVCAR-8) [%]	inhibition of growth at 10 µM (OVCAR-3) [%]	inhibition of growth at 10 µM (SN12C) [%]	inhibition of growth at 10 µM (TK-10) [%]	inhibition of growth at 10 µM (UACC-62) [%]	inhibition of growth at 10 µM (SK-OV-3) [%]	inhibition of growth at 10 µM (M14) [%]	inhibition of growth at 10 µM (NCI-H23) [%]	inhibition of growth at 10 µM (SK-MEL-2) [%]	inhibition of growth at 10 µM (T47D) [%]	inhibition of growth at 10 µM (PC-3) [%]	inhibition of growth at 10 µM (SF-539) [%]	inhibition of growth at 10 µM (A498) [%]	further results
O=[N+]([O-])c1cccc(C2c3sc4ccc(Cl)cc4c3N=C3NN=CN32)c1 (stereo unspecified)	4.93	26.2 (≈ 68.4 µM)	1.87	1.71	-4.99	-7.25	-2.71	1.42	-0.5	-37.5	39	3.57	-4.54	-2.02	17.7	-3.53	-3.72	-9.08	6.94	22.4	IC50 [1]: 6.64 µM; inhibition of growth at 10 µM (NCI-H322M): 5.8%; IC50 (MCF7): 9.8 µg/mL (≈ 25.5 µM); inhibition of growth at 10 µM (MDA-MB-231): 5.59%
O=[N+]([O-])c1cccc(C2c3sc4ccc(Cl)cc4c3N=C3NN=C(c4cccc(F)c4)N32)c1 (stereo unspecified)	1.04	10.5 (≈ 21.9 µM)	-0.64	-16.7	6.99	-18	-3.66	-1.43	-1.54	3.42	-12.9	4.06	6.58	-2.52	10.1	-11.2	18.1	7.25	4.75	0.64	IC50 [1]: 8.47 µM; inhibition of growth at 10 µM (NCI-H322M): 2.83%; IC50 (MCF7): 0.23 µg/mL (≈ 0.481 µM); inhibition of growth at 10 µM (MDA-MB-231): 13.4%
O=C1SC2=Nc3c(sc4ccc(Cl)cc34)C(c3ccc4ccccc4c3)N2C1=O (stereo unspecified)	26.4	46.7 (≈ 107 µM)	2.61	3.64	12	16.5	12.9	5.42	9.4	13.2	-28.7	34.2	9.71	7.5	20.5	14.1	24.5	17.1	5.81	13.1	inhibition of growth at 10 µM (NCI-H322M): 13.9%; IC50 (MCF7): 23.3 µg/mL (≈ 53.6 µM); inhibition of growth at 10 µM (MDA-MB-231): 18.1%
S=C1Nc2c(sc3ccc(Cl)cc23)C(c2ccc3ccccc3c2)N1 (stereo unspecified)	19.4	7.91 (≈ 20.8 µM)	7.85	-0.71	4	27.5	18.4	8.23	3.25	9.45	-25.5	13.9	12.2	7.85	15.2	9.98	22.5	14.5	3.23	14.9	inhibition of growth at 10 µM (NCI-H322M): 13.9%; IC50 (MCF7): 19.6 µg/mL (≈ 51.6 µM); inhibition of growth at 10 µM (MDA-MB-231): 23%
NC(=O)CSC1=Nc2c(sc3ccc(Cl)cc23)C(c2cccc([N+](=O)[O-])c2)N1 (stereo unspecified)	4.41	46.8 (≈ 108 µM)	-7.64	-12.1	2.53	-21.6	3.6	-3.56	-4.8	1.64	-16.6	6.2	4.62	-2.31	4.2	-13	23.9	7.5	0.81	20.2	IC50 [1]: 17 µM; inhibition of growth at 10 µM (NCI-H322M): 3.97%; IC50 (MCF7): 5.06 µg/mL (≈ 11.7 µM); inhibition of growth at 10 µM (MDA-MB-231): 7.36%
NNC1=Nc2c(sc3ccc(Cl)cc23)C(c2cccc([N+](=O)[O-])c2)N1 (stereo unspecified)	1.98	18.3 (≈ 49.1 µM)	-1.03	-16.8	13.3	-12.8	-5	-1.52	-1.38	1.02	-18.2	4.25	5.88	-4.43	9.49	-8.15	12.8	15.2	-1.12	-27.2	inhibition of growth at 10 µM (NCI-H322M): 4.45%; IC50 (MCF7): 16.4 µg/mL (≈ 43.7 µM); inhibition of growth at 10 µM (MDA-MB-231): 16.3%
